From patent publication US20190374574A1, “COMPOSITION FOR THE TREATMENT OF GASTROINTESTINAL DISORDERS” (NEILOS S.R.L., priority 2017, published 2019)
Where two headings read alike, the source gives them in different places.

Experiments:
[1] = system: Male mice of the ICR strain; assay: Diarrhoea induced by castor oil in mice; type: in vivo; settings: oral; for effect on diarrhoea induced by castor oil (percentage of mice that exhibited diarrhoea at the second hour): 30 minutes before castor oil 0.2 ml/mouse, evaluated 2 hours after castor oil, vs control
Description: In the following tests, the effect of two formulations and their individual constituents was evaluated in order to determine a possible synergistic effect among the individual components on diarrhoea induced by castor oil.
Male mice of the ICR strain supplied by the company Charles River and weighing 20-25 g were used. The animals were housed in temperature-controlled rooms (temperature of 23±2° C., humidity of 50±2%, 12-hour light-dark cycles) and had free access to water and food, consisting of a standard diet supplied by the company Mucedola Mangimi (Settimo Milanese, Italy). All experiments were performed in observance of Legislative Decree no. 116 of 27 Jan. 1992 and according to the guidelines of the Council of the European Union (86/609/EEC and 2010/63/EU).
The technique of Borrelli et al. (Borrelli F, Capasso F, Capasso R, Ascione V, Aviello G, Longo R, Izzo A A (2006). “Effect of Boswellia serrata on intestinal motility in rodents: inhibition of diarrhoea without constipation” Br J Pharmacol 148:553-560) was used. In practical terms, the mice were fasted for a period of 12 hours and then isolated in individual cages provided with a mesh on the bottom, set 5 cm above a sheet of absorbent paper. This enabled inspection of the excreted faeces. 30 minutes after administration of the samples to be tested, the animals received 0.2 ml of castor oil by means of a gastric probe. The diarrhoea was evaluated 15 minutes after the administration of the cathartic agent and every 15 minutes until the second hour. […]
Two formulations (according to the invention) were evaluated, consisting, respectively, of activated charcoal, Carum carvi, papain, α-galactosidase and β-galactosidase (total formulation) and activated charcoal, Carum carvi and papain (partial formulation). […]
The results are expressed as the mean±standard error of the mean (S.E.M.). The difference between two means was evaluated by means of Student's t-test. […]

[2] = system: patients with lactose intolerance; settings: cited from earlier work; for reduction in the hydrogen concentration compared to the placebo: p<0.001; for hydrogen concentration in expired air: placebo 51.46±16.12

Question: With β-galactosidase as the molecule, how does the “effect on diarrhoea induced by castor oil (percentage of mice that exhibited diarrhoea at the second hour)” value [1] read?
Answer: not capable of modifying the cathartic effect of the castor oil

Question: What about the “reduction in the hydrogen concentration compared to the placebo” value ([2]; group A: 3000 U of lactase added to milk 10 hours prior to administration) of the same molecule?
Answer: 77%

Question: And the “hydrogen concentration in expired air” value ([2]; group A: 3000 U of lactase added to milk 10 hours prior)?
Answer: 12.07±7.8 p.p.m.

Question: And the “reduction in the hydrogen concentration compared to the placebo” value ([2]; group B: 6000 U of lactase added to milk 5 minutes prior to ingestion)?
Answer: 73%

Question: And the “hydrogen concentration in expired air” value ([2]; group B: 6000 U of lactase added to milk 5 minutes prior)?
Answer: 13.97±7.99 p.p.m.

Question: What about the “cumulative quantity of expired hydrogen vs group C (placebo)” value ([2]; groups A and B) of the same molecule?
Answer: significantly lower

B1: Papain: Papain (CAS N. 9001-73-4), cysteine-protease from Carica papaya, activity greater than or equal to 2.5 FIP UI/mg (protein, UniProt P00784 134-345, looked up)
Papain: IPEYVDWRQKGAVTPVKNQGSCGSCWAFSAVVTIEGIIKIRTGNLNEYSEQELLDCDRRSYGCNGGYPWSALQLVAQYGIHYRNTYPYEGVQRYCRSREKGPYAAKTDGVRQVQPYNEGALLYSIANQPVSVVLEAAGKDFQLYRGGIFVGPCGNKVDHAVAAVGYGPNYILIKNSWGTGWGENGYIRIKRGTGNSYGVCGLYTSSFYPVKN
Question: For B1, which “effect on diarrhoea induced by castor oil (percentage of mice that exhibited diarrhoea at the second hour)” value [1] is on record?
Answer: significantly reduced diarrhoea

Question: What about the “dose at which the reduction of castor oil diarrhoea was significant” value ([1]; 2 hours after castor oil) of the same molecule?
Answer: 30 mg/kg
